Data published in patent US8470779B2, “Catecholamine regulated protein” (CRP40 Inc., priority 2005, dated 2013).

Experiments:
[1] = system: human CRP40 expression in DRD2 transfected SH-SY5Y human neuroblastoma cells; assay: Western immunoblotting of BQ/human CRP40 expression in DRD2 transfected SH-SY5Y cells; format: cell-based; conditions: 100 μM; for BQ expression compared to controls: overnight, DA D2 receptor transfected SH-SY5Y cells
Experimental: The pcDNA 3.1(+) vector was introduced into SH-S Y5 Y cells by lipofection method (Invitrogen Life Science technology. U.S.A.). Briefly, 24 μg of DRD2 plasmid DNA was mixed with 1.5 ml of Opti MEM media and 60 μl of lipofectamine 2000 reagent was added and mixed with 1.5 ml of Opti MEM media and SH-SY5Y cells. Geneticin-resistant clones stably expressing the D2L receptor were screened by a [3H] spirerone-binding assay and was maintained in RPMI medium (RPMI contained 10% fetal bovine serum, 1 mM glutamate, 50 U/ml of penicillin, and 50 U/ml of streptomycin) with 200 μg/ml of geneticin. Cells were grown to confluency (5-6 days following sub-culturing) in fresh RPMI medium.
SH-SY5Y cells were scraped off and this procedure was repeated a second time. The cells were incubated 5 min, centrifuged at 2000 rpm for 5 min and the supernatant was discarded. The pellet was re-suspended in 0.5 ml 0.35M sucrose buffer (wPMSF), homogenized and centrifuged at 1000 g for 10 min. The supernatant was centrifuged and the pellet was re-suspended in a 0.32M sucrose buffer (wPMSF), homogenized, and centrifuged. The pellet was re-suspended 0.053 ml Tris-EDTA PMSF and labeled as nuclear fraction 1. The supernatant was centrifuged and the resulting supernatant was stored and labeled cytosolic fraction 1. The remaining pellet was re-suspended in 0.150 ml Tris-EDT A-PMSF and labeled mitochondrial fraction 1.
The cells were exposed to the neurotransmitter and/or the neuroleptic (antipsychotic) and left overnight. Western immunoblotting with BQ primary antibody was performed, followed by immunoblotting with polyclonal conjugated horseradish peroxidase secondary antibody.

[2] = target: T1, recombinant human CRP40 (BQ-fusion protein) (Homo sapiens, UniProt P38646); assay: [3H]-NPA protein-binding assay with BQ-fusion protein; conditions: 100 μM, third of three NPA entries
T1 construct: a fragment of 720 base pairs (Genbank #BQ224193) was amplified; GST (Schistosoma japonicum glutathione S-transferase, pGEX-2T) (N); made in house; host or cells: E. coli BL21 (pGEX-2T)
T1 sequence (P38646 334-578 E571K/D572N/R574P): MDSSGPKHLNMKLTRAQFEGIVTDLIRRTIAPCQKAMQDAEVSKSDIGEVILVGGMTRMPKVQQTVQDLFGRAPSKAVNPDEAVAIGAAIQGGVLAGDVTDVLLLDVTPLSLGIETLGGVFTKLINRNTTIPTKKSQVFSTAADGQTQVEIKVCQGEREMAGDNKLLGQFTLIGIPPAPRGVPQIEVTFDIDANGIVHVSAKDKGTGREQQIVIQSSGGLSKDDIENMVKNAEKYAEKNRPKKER
Experimental: Briefly, the assays were performed in triplicate and consisted of the following solutions and protocol: 50 mM TRIS, 5.0 mM mgCl2, 1.0 mM EDTA, 0.ImM DTT, 0.ImM PMSF, 100 mg/ml Bacitracin and 5.0 mg/ml soybean trypsin; DA (mw=189.6) was dissolved in 0.1% ascorbic acid; each tube was vortexed briefly and incubated in a shaking water bath at 37° C., for 2 h; receptor binding equipment (Brandel, U.S.A.) washed 3 times with distilled water; then repeated washes in assay buffer, 50 nM TRIS, 1 mM EDTA, pH 7.4; 18 test-tubes were set on the binding platform and fiberglass filter paper was put on the platform. The samples were passed through the filter paper with 3 consecutive washes; placed in the scintillation tubes and 5.0 ml Biodegradable Counting Scintillant was added and radioactive counts were measured (Amersham, U.S.A.).
The first protein binding study involved [3+H]NPA and 3 different concentrations of displacement molecules (DA, NPA), 100 μM, 10 μM and 1 μM, respectively. Following protein binding, DPM counts were performed in a Beckman scintillation counter.

[3] = system: human CRP40; assay: Immunohistochemistry localization of human CRP40 in post-mortem nucleus accumbens; conditions: post-mortem NA slide of schizophrenic patient treated with large doses of HAL
Experimental: Three slides were chosen from the 60 samples generously donated by The Stanley Foundation. The slides consisted of: 1) control; 2) schizophrenia patient-drug free; 3) schizophrenic patient-15000K, HAL-treated. The slides were incubated with 4% formaldehyde and diluted in PBS for 30 min. Immediately following, washed sections 3 times with PBS for 5 min, each time and dried off each slide as close as possible to the tissue and outlined the section with the hydrophobic pen. The sections were then blocked by incubating sections with 3% normal goat serum*(NGS) (diluted in PBS containing 0.6% Triton X-100) for 1 h. Next, incubated slides with primary human CRP40 polyclonal antibody diluted in PBS containing 0.6% Triton X-100 (and 3% NGS if necessary) overnight at 4° C. (wrapped in aluminum foil). The following day, the slides were washed 3 times with PBS for 5 min, each time, and incubated slides with FITC secondary antibody diluted in PBS containing 0.6% Triton X-100 for 4 h. Next, the sections were washed 6 times in PBS and slides were mounted with appropriate cover-slips and fixed with nail polish.
Three slides containing post mortem brain specimens of the NA were used in immunohistochemistry studies. […] The next day, the slides were analyzed using a confocal microscope (McMaster University).

[4] = system: 6-OHDA lesioned hemi-Parkinson's rat model; assay: HPLC of DA levels in SN and striatum; format: in vivo; conditions: striatal-injected rats
Excerpt: (§1) The treatment groups were the following: Group 1 (n=3; males) were hemi-lesioned animals treated with a sham injection (CSF) to the Striatum; Group 2 (n=3; males) were hemi-lesioned animals treated with Mortalin2 plasmid injection to the Striatum; Group 3 (n=3; males) were hemi-lesioned animals treated with CRP40 plasmid injection to the Striatum; Group 4 (n=2; males) were hemi-lesioned animals treated with Mortalin2 protein injection to the Striatum; Group 5 (n=2; males) were hemi-lesioned animals treated with CRP40 protein injection to the Striatum; Group 6 (n=3; males) were controls, non-lesioned, and received a CSF injection to the Striatum.
(§2) Once all baseline data was collected, the rats were placed under gaseous anaesthesia and injected, via cannulae, with one of the five following treatments: CSF sham (Striatal n=3), CRP40 plasmid DNA (Striatal n=3), MOT-2 plasmid DNA (Striatal n=3), CRP40 protein (Striatal n=2), MOT-2 protein (Striatal n=2).
After recovery from surgery, all animals were again tested using the same behavioural methods for post-intervention measures. PPI and locomotor activity were tested at 7 and 14 days post-injection, and apomorphine-induced rotation was tested at various time points between days 2 and 14 post-injection. On day 15 post-injection, all rats were sacrificed. […]

[5] = system: 6-OHDA lesioned hemi-Parkinson's rat model; assay: Apomorphine-induced turning behaviour after striatal injection; format: in vivo; conditions: for apomorphine-induced rotational symptoms: striatal injection on lesioned side
Excerpt: This research study examined the potential of CRP40 as a therapeutic in Parkinson's disease (PD). It has been shown herein that dopamine (DA) can modulate CRP40 expression. Further, knockdown of CRP40 in the medial prefrontal cortex (mPFC) caused deficits in DA-dependant behaviours related to human disease. This study investigated whether the introduction of CRP40 into the lesioned region of a rat model of PD would reduce or reverse symptoms associated with PD compared to control animals. This model is a well-established one in which the nigrostriatal system is hemi-laterally lesioned by injection of the cytotoxin 6-hydroxydopamine (6-OHDA). These animals show phenotypic rotating behaviour as a result of the hemi-lesion.
as §1
Once the animals were comfortable with the experimenter, they were subjected to a series of behavioural tests for baseline measures. In addition to the apomorphine-induced rotation, other tests included prepulse inhibition (PPI) and locomotor activity tests. The apomorphine-induced rotations test involves giving each animal a subcutaneous injection of apomorphine according to body weight. Since the animals are lesioned hemi-laterally at the nigrostriatal pathway, they show compulsive turning behaviour in a direction contra-lateral to the lesion. For this project, there was interest in the number of rotations each animal made in a ten minute testing period. PPI is a test of sensorimotor gating where animals are exposed to a startling acoustic pulse. This pulse, however, follows a subtle pre-pulse which allows for inhibition of the startle response. Locomotor activity test involves cubic chambers lined with infrared sensors that detect any and all movements made by the animal over a three hour testing period. For this experiment “total distance travelled” measurements were of interest.
as §2, with “n=2). […]” for “n=2).”

**Q.** With NCCc1ccc(O)c(O)c1 [DA, dopamine] as the molecule, how does the “human CRP40 protein expression in the nuclear fraction relative to control cells” value ([1]; SH-SY5Y nuclear fraction) read?
**A.** significant increase

**Q.** And the “BQ expression compared to controls” value [1]?
**A.** significant increase

**Q.** CCCN1CCc2cccc3c2[C@H]1Cc1ccc(O)c(O)c1-3 [NPA, N-propylnorapomorphine] was tested. Which “amount of displacement of [3H]NPA” value [2] did it give?
**A.** 64.3%

**Q.** O=C(CCCN1CCC(O)(c2ccc(Cl)cc2)CC1)c1ccc(F)cc1 [Haloperidol, haloperidol] was tested. Which “localization of human CRP40 antibody staining” value [3] did it give?
**A.** located almost exclusively within the nucleus

**Q.** What about the “BQ expression compared to controls” value [1] of the same molecule?
**A.** significant increase

B1: CRP40 protein: 346 amino acid catecholamine-regulated protein, SEQ ID NO: 8 (protein, listed as Homo sapiens)
chain: MDSSGPKHLNMKLTRAQFEGIVTDLIRRTIAPCQKAMQDAEVSKSDIGEVILVGGMTRMPKVQQTVQDLFGRAPSKAVNPDEAVAIGAAIQGGVLAGDVTDVLLLDVTPLSLGIETLGGVFTKLINRNTTIPTKKSQVFSTAADGQTQVEIKVCQGEREMAGDNKLLGQFTLIGIPPAPRGVPQIEVTFDIDANGIVHVSAKDKGTGREQQIVIQSSGGLSKDDIENMVKNAEKYAEEDRRKKERVEAVNMAEGIIHDTETKMEEFKDQLPADECNKLKEEISKMRELLARKDSETGENIRQAASSLQQASLKLFEMAYKKMASEREGSGSSGTGEQKEDQKEEKQ
**Q.** With B1 as the molecule, how does the “levels of DA in the SN & striatum (HPLC)” value [4] read?
**A.** increase in dopamine concentration at both the SN and the striatum

**Q.** What about the apomorphine-induced rotational symptoms ([5]; day 10 post-injection) of the same molecule?
**A.** alleviated

**Q.** What about the apomorphine-induced rotational symptoms ([5]; day 14 post-injection) of the same molecule?
**A.** beginning to increase again

**Q.** What about the apomorphine-induced rotational symptoms ([5]; days 4 and 7 post-injection) of the same molecule?
**A.** reversal of rotational symptoms

**Q.** And the “apomorphine-induced rotational symptoms, overall” value ([5]; striatal injection, no time point stated)?
**A.** completely reversed
